According to patent publication US8314093B2, “2,4-pyrimidinediamine compounds for treating or preventing autoimmune diseases” (Rigel Pharmaceuticals, Inc., priority 2006, dated 2012):
pIC50: −log10 of the molar value.

Test system: cultured human mast cells (CHMC), IgE-induced degranulation
Assay: LD Tryptase assay: CHMC low cell density IgE activation, tryptase release
Assay type: cell-based
Details: anti-IgE stimulation, 8 pt
Experimental: Inhibition of degranulation is measured at both low and high cell density by quantifying the release of the granule specific factors tryptase, histamine and hexosaminidase. Inhibition of release and/or synthesis of lipid mediators is assessed by measuring the release of leukotriene LTC4 and inhibition of release and/or synthesis of cytokines is monitored by quantifying TNF-α, IL-6 and IL-13. Tryptase and hexosaminidase are quantified using fluorogenic substrates as described in their respective examples. Histamine, TNFα, IL-6, IL-13 and LTC4 are quantified using the following commercial ELISA kits: histamine (Immunotech #2015, Beckman Coulter), TNFα (Biosource #KHC3011), IL-6 (Biosource #KMC0061), IL-13 (Biosource #KHC0132) and LTC4 (Cayman Chemical #520211). The protocols of the various assays are provided below.
CHMC Low Cell Density IgE Activation: Tryptase and LTC4 Assays
To duplicate 96-well U-bottom plates (Costar 3799) add 65 ul of compound dilutions or control samples that have been prepared in MT [137 mM NaCl, 2.7 mM KCl, 1.8 mM CaCl2, 1.0 mM MgCl2, 5.6 mM Glucose, 20 mM Hepes (pH 7.4), 0.1% Bovine Serum Albumin, (Sigma A4503)] containing 2% MeOH and 1% DMSO. Pellet CHMC cells (980 rpm, 10 min) and resuspend in pre-warmed MT. Add 65 ul of cells to each 96-well plate. Depending on the degranulation activity for each particular CHMC donor, load 1000-1500 cells/well. Mix four times followed by a 1 hr incubation at 37° C. During the 1 hr incubation, prepare 6× anti-IgE solution [rabbit anti-human IgE (1 mg/ml, Bethyl Laboratories A80-109A) diluted 1:167 in MT buffer]. Stimulate cells by adding 25 ul of 6× anti-IgE solution to the appropriate plates. Add 25 ul MT to un-stimulated control wells. Mix twice following addition of the anti-IgE. Incubate at 37° C. for 30 minutes. During the 30 minute incubation, dilute the 20 mM tryptase substrate stock solution [(Z-Ala-Lys-Arg-AMC 2TFA; Enzyme Systems Products, #AMC-246)] 1:2000 in tryptase assay buffer [0.1 M Hepes (pH 7.5), 10% w/v Glycerol, 10 uM Heparin (Sigma H-4898) 0.01% NaN3]. Spin plates at 1000 rpm for 10 min to pellet cells. Transfer 25 ul of supernatant to a 96-well black bottom plate and add 100 ul of freshly diluted tryptase substrate solution to each well. Incubate plates at room temperature for 30 min. Read the optical density of the plates at 355 nm/460 nm on a spectrophotometric plate reader.

pIC50 | Compound
> 5.30 | COc1ccc(CN2C(=O)C(C)Oc3ccc(Nc4nc(Nc5cc(O)c(OC)c(OC)c5)ncc4F)cc32)cc1 (racemic) [Example 9, (R/S)-5-Fluoro-N2-(3-hydroxy-4,5-dimethoxyphenyl)-N4-[2-methyl-3-oxo-4-(4-methoxybenzyl)-benz[1,4]oxazin-6-yl]-2,4-pyrimidinediamine]
> 5.30 | COc1ccc(CN2C(=O)C(C)Sc3ccc(Nc4nc(Nc5cc(O)c(OC)c(OC)c5)ncc4F)cc32)cc1 (racemic) [Example 10, (R/S)-5-Fluoro-N2-(3-hydroxy-4,5-dimethoxyphenyl)-N4-[2-methyl-3-oxo-4-(4-methoxybenzyl)-benzo[1,4]thiazin-6-yl]-2,4-pyrimidinediamine]
> 6.00 | COc1cc(Nc2ncc(F)c(Nc3ccc4c(c3)NC(=O)CS4)n2)cc(O)c1OC [Example 1, 5-Fluoro-N2-(3-hydroxy-4,5-dimethoxyphenyl)-N4-[3-oxo-benzo[1,4]thiazin-6-yl]-2,4-pyrimidinediamine]
> 6.00 | COc1cc(Nc2ncc(F)c(Nc3ccc4c(c3)NC(=O)C(C)(C)S4)n2)cc(O)c1OC [Example 2, N4-[2,2-Dimethyl-3-oxo-benzo[1,4]thiazin-6-yl]-5-fluoro-N2-(3-hydroxy-4,5-dimethoxyphenyl)-2,4-pyrimidinediamine]
> 6.00 | COc1cc(Nc2ncc(F)c(Nc3ccc4c(c3)NC(=O)C(C)(C)O4)n2)cc(O)c1OC [Example 3, N4-[2,2-Dimethyl-3-oxo-benz[1,4]oxazin-6-yl]-5-fluoro-N2-(3-hydroxy-4,5-dimethoxyphenyl)-2,4-pyrimidinediamine]
> 6.00 | COc1cc(Nc2ncc(F)c(Nc3ccc4c(n3)NC(=O)C(C)(C)O4)n2)cc(O)c1OC [Example 4, N4-[2,2-Dimethyl-3-oxo-pyrid[1,4]oxazin-6-yl]-5-fluoro-N2-(3-hydroxy-4,5-dimethoxyphenyl)-2,4-pyrimidinediamine]
> 6.00 | COc1cc(Nc2ncc(F)c(Nc3ccc4c(c3)NC(=O)CO4)n2)cc(O)c1OC [Example 5, 5-Fluoro-N2-(3-hydroxy-4,5-dimethoxyphenyl)-N4-[3-oxo-benz[1,4]oxazin-6-yl]-2,4-pyrimidinediamine]
> 6.00 | COc1cc(Nc2ncc(F)c(Nc3ccc4c(c3)NC(=O)C(F)(F)O4)n2)cc(O)c1OC [Example 6, N4-[2,2-Difluoro-3-oxo-benz[1,4]oxazin-6-yl]-5-fluoro-N2-(3-hydroxy-4,5-dimethoxyphenyl)-2,4-pyrimidinediamine]
> 5.30 | COc1cc(Nc2ncc(F)c(Nc3ccc4c(c3)N(Cc3ccccn3)C(=O)CO4)n2)cc(O)c1OC [Example 7, 5-Fluoro-N2-(3-hydroxy-4,5-dimethoxyphenyl)-N4[3-oxo-4-(2-pyridylmethyl)-benz[1,4]oxazin-6-yl]-2,4-pyrimidinediamine]
> 6.00 | COc1cc(Nc2ncc(F)c(Nc3ccc4c(c3)C(=O)NC(=O)C4(C)C)n2)cc(O)c1OC [Example 8, 5-Fluoro-N2-(3-hydroxy-4,5-dimethoxyphenyl)-N4-(1,3-(2H)-4,4-dimethylisoquinolinedione-7-yl)-2,4-pyrimidinediamine]
> 6.00 | COc1cc(Nc2ncc(F)c(Nc3ccc4c(c3)N(C)C(=O)C(C)(C)S4(=O)=O)n2)cc(O)c1OC [Example 11, 5-Fluoro-N2-(3-hydroxy-4,5-dimethoxyphenyl)-N4-(2,2,4-trimethyl-1,1,3-trioxo-benzo[1,4]thiazin-6-yl)-2,4-pyrimidinediamine]
> 6.00 | COc1cc(Nc2ncc(F)c(Nc3ccc4c(c3)N(C)C(=O)CS4)n2)cc(O)c1OC [Example 12, 5-Fluoro-N2-(3-hydroxy-4,5-dimethoxyphenyl)-N4-(4-methyl-3-oxo-benzo[1,4]thiazin-6-yl)-2,4-pyrimidinediamine]
> 6.00 | COc1cc(Nc2ncc(F)c(Nc3ccc4c(n3)NCC(C)(C)O4)n2)cc(O)c1OC [Example 13, N4-(3,4-Dihydro-2H-2,2-dimethyl-5-pyrido[1,4]oxazin-6-yl)-N2-[3,4-dimethoxyphenyl-5-hydroxyphenyl]-5-fluoro-2,4-pyrimidinediamine]
